# Reference: patent US12479847B2 (DANA-FARBER CANCER INSTITUTE, INC., priority 2019, dated 2025)
# Target: human LRRK2 kinase (Homo sapiens, UniProt Q5S007)
# Conditions: LRRK2, ADP-Glo, ATP 10 μM, 60 minutes at 25° C.
# Method: Assay kits from Promega™ Corporation were used according to instructions and adapted as outlined herein. […] The kinase reaction was performed with kinase reaction buffer (40 mM Tris base pH 7.4, 20 mM MgCl2, 0.5 mM dithiothreitol), 0.1 mg/ml bovine serum albumin, distilled H2O). […] In brief, the kinase reactions were started by addition of ATP to the kinase reaction mixture. The resulting mixture was incubated for 60 minutes at 25° C., and then stopped by adding 5 μl of ADP-Glo™ reagent. After incubation at room temperature in the dark for 40 minutes, 10 μl of kinase detection reagent was added per well, and the mixture was incubated for 10 minutes. […] Positive and negative controls were performed in 0.5% DMSO in the presence and absence of LRRK2 kinases. Curve fitting and data presentations were performed using GraphPad Prism version 5.0 (GraphPad Software, Inc.).
# human LRRK2 kinase, sequence (Q5S007 whole entry): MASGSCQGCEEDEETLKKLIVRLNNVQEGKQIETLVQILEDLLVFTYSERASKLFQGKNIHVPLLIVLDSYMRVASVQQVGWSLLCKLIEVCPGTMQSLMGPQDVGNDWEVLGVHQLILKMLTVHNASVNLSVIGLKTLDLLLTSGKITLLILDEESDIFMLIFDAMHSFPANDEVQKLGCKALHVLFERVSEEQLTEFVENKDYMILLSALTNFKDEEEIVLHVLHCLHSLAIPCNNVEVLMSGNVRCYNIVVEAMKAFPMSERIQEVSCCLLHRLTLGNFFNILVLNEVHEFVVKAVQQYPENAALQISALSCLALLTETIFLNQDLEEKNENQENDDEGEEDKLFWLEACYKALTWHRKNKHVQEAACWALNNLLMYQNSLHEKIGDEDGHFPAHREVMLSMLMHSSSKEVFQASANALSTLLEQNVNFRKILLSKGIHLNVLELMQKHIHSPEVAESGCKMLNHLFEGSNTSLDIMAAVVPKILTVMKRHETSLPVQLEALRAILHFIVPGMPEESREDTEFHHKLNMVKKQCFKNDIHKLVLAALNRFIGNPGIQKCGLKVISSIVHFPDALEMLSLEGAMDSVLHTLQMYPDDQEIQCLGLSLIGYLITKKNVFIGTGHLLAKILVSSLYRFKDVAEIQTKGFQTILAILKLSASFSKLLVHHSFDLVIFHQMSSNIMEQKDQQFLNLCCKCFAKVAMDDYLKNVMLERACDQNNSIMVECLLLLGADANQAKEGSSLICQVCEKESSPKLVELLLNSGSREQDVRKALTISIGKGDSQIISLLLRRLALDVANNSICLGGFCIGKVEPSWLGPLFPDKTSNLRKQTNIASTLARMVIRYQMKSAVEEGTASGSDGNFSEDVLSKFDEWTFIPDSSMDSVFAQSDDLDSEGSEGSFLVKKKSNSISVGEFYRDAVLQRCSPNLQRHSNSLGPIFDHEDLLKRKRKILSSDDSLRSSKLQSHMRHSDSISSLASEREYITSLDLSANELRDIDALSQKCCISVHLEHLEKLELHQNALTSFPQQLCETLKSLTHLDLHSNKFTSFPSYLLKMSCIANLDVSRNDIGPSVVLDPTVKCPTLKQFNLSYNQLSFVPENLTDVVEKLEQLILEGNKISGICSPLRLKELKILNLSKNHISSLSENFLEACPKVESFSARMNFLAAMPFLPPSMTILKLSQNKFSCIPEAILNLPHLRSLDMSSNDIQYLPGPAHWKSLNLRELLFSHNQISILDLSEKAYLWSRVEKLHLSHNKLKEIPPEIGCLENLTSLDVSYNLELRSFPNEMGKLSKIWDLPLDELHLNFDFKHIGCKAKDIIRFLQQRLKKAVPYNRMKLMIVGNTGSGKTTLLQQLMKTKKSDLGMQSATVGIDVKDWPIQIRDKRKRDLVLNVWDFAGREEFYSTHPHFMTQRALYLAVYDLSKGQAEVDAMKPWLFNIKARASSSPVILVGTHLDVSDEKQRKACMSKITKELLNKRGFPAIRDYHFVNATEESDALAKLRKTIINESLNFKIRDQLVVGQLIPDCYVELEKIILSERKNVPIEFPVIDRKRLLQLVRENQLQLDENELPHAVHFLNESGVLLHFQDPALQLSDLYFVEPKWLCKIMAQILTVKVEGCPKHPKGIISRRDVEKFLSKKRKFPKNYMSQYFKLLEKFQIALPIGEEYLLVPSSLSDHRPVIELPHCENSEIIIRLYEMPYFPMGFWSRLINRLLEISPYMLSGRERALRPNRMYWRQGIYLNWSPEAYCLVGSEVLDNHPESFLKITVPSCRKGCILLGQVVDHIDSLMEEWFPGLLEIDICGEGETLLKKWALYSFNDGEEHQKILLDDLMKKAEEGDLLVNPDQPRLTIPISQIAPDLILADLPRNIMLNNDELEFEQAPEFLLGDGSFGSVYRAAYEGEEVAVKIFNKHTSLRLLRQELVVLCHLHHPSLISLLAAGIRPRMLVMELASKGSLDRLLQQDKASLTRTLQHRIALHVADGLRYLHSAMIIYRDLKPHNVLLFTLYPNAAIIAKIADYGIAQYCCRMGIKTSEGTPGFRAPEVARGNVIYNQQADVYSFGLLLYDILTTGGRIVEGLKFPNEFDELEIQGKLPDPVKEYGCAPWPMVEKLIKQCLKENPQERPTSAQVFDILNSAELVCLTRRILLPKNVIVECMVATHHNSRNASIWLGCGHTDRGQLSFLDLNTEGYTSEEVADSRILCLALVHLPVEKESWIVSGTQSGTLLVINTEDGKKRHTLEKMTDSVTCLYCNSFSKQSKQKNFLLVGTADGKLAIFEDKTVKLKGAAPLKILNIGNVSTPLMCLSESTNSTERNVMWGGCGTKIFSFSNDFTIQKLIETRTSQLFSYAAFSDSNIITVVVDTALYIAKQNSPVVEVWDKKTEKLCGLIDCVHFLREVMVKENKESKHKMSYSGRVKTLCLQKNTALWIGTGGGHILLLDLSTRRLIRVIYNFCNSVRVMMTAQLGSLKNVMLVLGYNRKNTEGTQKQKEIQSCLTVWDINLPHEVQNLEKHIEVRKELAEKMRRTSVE
row,SMILES,IC50 [nM]
1,"COc1cc(S(=O)(=O)N2CCOCC2)ccc1Nc1nc(NCC2CCCC2)c2c(Cl)c[nH]c2n1 [Compound 45, 5-chloro-N4-(cyclopentylmethyl)-N2-(2-methoxy-4-(morpholinosulfonyl)phenyl)-7H-pyrrolo[2,3-d]pyrimidine-2,4-diamine]",100 to 1000
2,"O=C(c1ccc(Nc2nc(NCC3CCCC3)c3c(Cl)c[nH]c3n2)c2c1OCCO2)N1CCOCC1 [Compound 46, (8-((5-chloro-4-((cyclopentylmethyl)amino)-7H-pyrrolo[2,3-d]pyrimidin-2-yl)amino)-2,3-dihydrobenzo[b][1,4]dioxin-5-yl)(morpholino)methanone]",100 to 1000
3,"CC[C@@H](C)Nc1nc(Nc2ccc(S(=O)(=O)N3CCOCC3)cc2OC)nc2[nH]cc(Cl)c12 [Compound 47, (R)—N4-(sec-butyl)-5-chloro-N2-(2-methoxy-4-(morpholinosulfonyl)phenyl)-7H-pyrrolo[2,3-d]pyrimidine-2,4-diamine]",100 to 1000
4,"CC[C@@H](C)Nc1nc(Nc2ccc(S(=O)(=O)N3CCC(N4CCOCC4)CC3)cc2OC)nc2[nH]cc(Cl)c12 [Compound 48, (R)—N4-(sec-butyl)-5-chloro-N2-(2-methoxy-4-((4-morpholinopiperidin-1-yl)sulfonyl)phenyl)-7H-pyrrolo[2,3-d]pyrimidine-2,4-diamine]",100 to 1000
5,"CC[C@@H](C)Nc1nc(Nc2ccc(S(C)(=O)=O)cc2OC)nc2[nH]cc(Cl)c12 [Compound 49, (R)—N4-(sec-butyl)-5-chloro-N2-(2-methoxy-4-(methylsulfonyl)phenyl)-7H-pyrrolo[2,3-d]pyrimidine-2,4-diamine]",10 to 100
6,"CC[C@@H](C)Nc1nc(Nc2ccc(C(=O)N3CCOCC3)c3c2OCCO3)nc2[nH]cc(Cl)c12 [Compound 50, (R)-(8-((4-(sec-butylamino)-5-chloro-7H-pyrrolo[2,3-d]pyrimidin-2-yl)amino)-2,3-dihydrobenzo[b][1,4]dioxin-5-yl)(morpholino)methanone]",< 10
7,"COc1cc(S(=O)(=O)N2CCOCC2)ccc1Nc1nc(NC2CCCC2)c2c(Cl)c[nH]c2n1 [Compound 55, 5-chloro-N4-cyclopentyl-N2-(2-methoxy-4-(morpholinosulfonyl)phenyl)-7H-pyrrolo[2,3-d]pyrimidine-2,4-diamine]",100 to 1000
8,"COc1cc(S(=O)(=O)N2CCC(N3CCOCC3)CC2)ccc1Nc1nc(NC2CCCC2)c2c(Cl)c[nH]c2n1 [Compound 56, 5-chloro-N4-cyclopentyl-N2-(2-methoxy-4-((4-morpholinopiperidin-1-yl)sulfonyl)phenyl)-7H-pyrrolo[2,3-d]pyrimidine-2,4-diamine]",10 to 100
9,"COc1cc(S(C)(=O)=O)ccc1Nc1nc(NC2CCCC2)c2c(Cl)c[nH]c2n1 [Compound 57, 5-chloro-N4-cyclopentyl-N2-(2-methoxy-4-(methylsulfonyl)phenyl)-7H-pyrrolo[2,3-d]pyrimidine-2,4-diamine]",100 to 1000
10,"COc1cc(S(=O)(=O)N2CCOCC2)ccc1Nc1nc(NC2CCCCC2)c2c(Cl)c[nH]c2n1 [Compound 58, 5-chloro-N4-cyclohexyl-N2-(2-methoxy-4-(morpholinosulfonyl)phenyl)-7H-pyrrolo[2,3-d]pyrimidine-2,4-diamine]",100 to 1000
11,"COc1cc(S(C)(=O)=O)ccc1Nc1nc(NC2CCCCC2)c2c(Cl)c[nH]c2n1 [Compound 59, 5-chloro-N4-cyclohexyl-N2-(2-methoxy-4-(methylsulfonyl)phenyl)-7H-pyrrolo[2,3-d]pyrimidine-2,4-diamine]",100 to 1000
12,"COc1cc(S(=O)(=O)N2CCOCC2)ccc1Nc1nc(N[C@H]2CCOC2)c2c(Cl)c[nH]c2n1 [Compound 60, (S)-5-chloro-N2-(2-methoxy-4-(morpholinosulfonyl)phenyl)-N4-(tetrahydrofuran-3-yl)-7H-pyrrolo[2,3-d]pyrimidine-2,4-diamine]",10 to 100
13,"COc1cc(S(=O)(=O)N2CCC(N3CCOCC3)CC2)ccc1Nc1nc(N[C@H]2CCOC2)c2c(Cl)c[nH]c2n1 [Compound 61, (S)-5-chloro-N2-(2-methoxy-4-((4-morpholinopiperidin-1-yl)sulfonyl)phenyl)-N4-(tetrahydrofuran-3-yl)-7H-pyrrolo[2,3-d]pyrimidine-2,4-diamine]",< 10
14,"COc1cc(S(=O)(=O)N2CCOCC2)ccc1Nc1nc(NC2CCOCC2)c2c(Cl)c[nH]c2n1 [Compound 62, 5-chloro-N2-(2-methoxy-4-(morpholinosulfonyl)phenyl)-N4-(tetrahydro-2H-pyran-4-yl)-7H-pyrrolo[2,3-d]pyrimidine-2,4-diamine]",< 10
15,"COc1cc(S(C)(=O)=O)ccc1Nc1nc(NC2CCOCC2)c2c(Cl)c[nH]c2n1 [Compound 63, 5-chloro-N2-(2-methoxy-4-(methylsulfonyl)phenyl)-N4-(tetrahydro-2H-pyran-4-yl)-7H-pyrrolo[2,3-d]pyrimidine-2,4-diamine]",10 to 100
16,"COc1cc(S(C)(=O)=O)ccc1Nc1nc(NCC2CC2)c2c(Cl)c[nH]c2n1 [Compound 64, 5-chloro-N4-(cyclopropylmethyl)-N2-(2-methoxy-4-(methylsulfonyl)phenyl)-7H-pyrrolo[2,3-d]pyrimidine-2,4-diamine]",10 to 100

row,SMILES,IC50 [nM]
1,"O=C(c1ccc(Nc2nc(NCC3CC3)c3c(Cl)c[nH]c3n2)c2c1OCCO2)N1CCOCC1 [Compound 65, (8-((5-chloro-4-((cyclopropylmethyl)amino)-7H-pyrrolo[2,3-d]pyrimidin-2-yl)amino)-2,3-dihydrobenzo[b][1,4]dioxin-5-yl)(morpholino)methanone]",< 10
2,"COc1cc(S(C)(=O)=O)ccc1Nc1nc(NCC2CCC2)c2c(Cl)c[nH]c2n1 [Compound 66, 5-chloro-N4-(cyclobutylmethyl)-N2-(2-methoxy-4-(methylsulfonyl)phenyl)-7H-pyrrolo[2,3-d]pyrimidine-2,4-diamine]",100 to 1000
3,"COc1cc(S(=O)(=O)N2CCC(N3CCOCC3)CC2)ccc1Nc1nc(NCC2CCCC2)c2c(Cl)c[nH]c2n1 [Compound 67, 5-chloro-N4-(cyclopentylmethyl)-N2-(2-methoxy-4-((4-morpholinopiperidin-1-yl)sulfonyl)phenyl)-7H-pyrrolo[2,3-d]pyrimidine-2,4-diamine]",100 to 1000
4,"COc1cc(S(=O)(=O)N2CCOCC2)ccc1Nc1nc(NCCS(C)(=O)=O)c2c(Cl)c[nH]c2n1 [Compound 68, 5-chloro-N2-(2-methoxy-4-(morpholinosulfonyl)phenyl)-N4-(2-(methylsulfonyl)ethyl)-7H-pyrrolo[2,3-d]pyrimidine-2,4-diamine]",10 to 100
5,"COc1cc(S(=O)(=O)N2CCC(N3CCOCC3)CC2)ccc1Nc1nc(NCCS(C)(=O)=O)c2c(Cl)c[nH]c2n1 [Compound 69, 5-chloro-N2-(2-methoxy-4-((4-morpholinopiperidin-1-yl)sulfonyl)phenyl)-N4-(2-(methylsulfonyl)ethyl)-7H-pyrrolo[2,3-d]pyrimidine-2,4-diamine]",< 10
6,"CS(=O)(=O)CCNc1nc(Nc2ccc(C(=O)N3CCOCC3)c3c2OCCO3)nc2[nH]cc(Cl)c12 [Compound 70, (8-((5-chloro-4-((2-(methylsulfonyl)ethyl)amino)-7H-pyrrolo[2,3-d]pyrimidin-2-yl)amino)-2,3-dihydrobenzo[b][1,4]dioxin-5-yl)(morpholino)methanone]",< 10
7,"CCCCNc1nc(Nc2ccc(S(=O)(=O)N3CCOCC3)cc2OC)nc2[nH]cc(Cl)c12 [Compound 71, N4-butyl-5-chloro-N2-(2-methoxy-4-(morpholinosulfonyl)phenyl)-7H-pyrrolo[2,3-d]pyrimidine-2,4-diamine]",10 to 100
8,"CCCCNc1nc(Nc2ccc(S(=O)(=O)N3CCC(N4CCOCC4)CC3)cc2OC)nc2[nH]cc(Cl)c12 [Compound 72, N4-butyl-5-chloro-N2-(2-methoxy-4-((4-morpholinopiperidin-1-yl)sulfonyl)phenyl)-7H-pyrrolo[2,3-d]pyrimidine-2,4-diamine]",10 to 100
9,"CCCCNc1nc(Nc2ccc(S(C)(=O)=O)cc2OC)nc2[nH]cc(Cl)c12 [Compound 73, N4-butyl-5-chloro-N2-(2-methoxy-4-(methylsulfonyl)phenyl)-7H-pyrrolo[2,3-d]pyrimidine-2,4-diamine]",10 to 100
10,"CCCCNc1nc(Nc2ccc(C(=O)N3CCOCC3)c3c2OCCO3)nc2[nH]cc(Cl)c12 [Compound 74, (8-((4-(butylamino)-5-chloro-7H-pyrrolo[2,3-d]pyrimidin-2-yl)amino)-2,3-dihydrobenzo[b][1,4]dioxin-5-yl)(morpholino)methanone]",10 to 100
11,"CNc1nc(Nc2ccc(C(=O)N3CCOCC3)c3c2OCC3)nc2[nH]cc(Cl)c12 [Compound 76, (7-((5-chloro-4-(methylamino)-7H-pyrrolo[2,3-d]pyrimidin-2-yl)amino)-2,3-dihydrobenzofuran-4-yl)(morpholino)methanone]",< 10
12,"COc1cc(P2(=O)CCN(C3CC3)CC2)ccc1Nc1nc(NC2CCCC2)c2c(Cl)c[nH]c2n1 [Compound 78, 4-(4-((5-chloro-4-(cyclopentylamino)-7H-pyrrolo[2,3-d]pyrimidin-2-yl)amino)-3-methoxyphenyl)-1-cyclopropyl-1,4-azaphosphinane 4-oxide]",10 to 100
13,COc1cc(P2(=O)CCN(C3CCOCC3)CC2)ccc1Nc1nc(NC2CCCC2)c2c(Cl)c[nH]c2n1 [Compound 79],10 to 100
14,"O=C(c1ccc(Nc2nc(NC3CCCCC3)c3c(Cl)c[nH]c3n2)c2c1CCO2)N1CCC(N2CCOCC2)CC1 [Compound 80, (7-((5-chloro-4-(cyclohexylamino)-7H-pyrrolo[2,3-d]pyrimidin-2-yl)amino)-2,3-dihydrobenzofuran-4-yl)(4-morpholinopiperidin-1-yl)methanone]",100 to 1000
15,"COc1cc(P2(=O)CCN(C3CCOCC3)CC2)ccc1Nc1nc(NC2CCCCC2)c2c(Cl)c[nH]c2n1 [Compound 81, 4-(4-((5-chloro-4-(cyclohexylamino)-7H-pyrrolo[2,3-d]pyrimidin-2-yl)amino)-3-methoxyphenyl)-1-(tetrahydro-2H-pyran-4-yl)-1,4-azaphosphinane 4-oxide]",10 to 100
16,"CNc1nc(Nc2ccc(P3(=O)CCN(C(C)=O)CC3)cc2OC)nc2[nH]cc(Cl)c12 [Compound 82, 1-(4-(4-((5-chloro-4-(methylamino)-7H-pyrrolo[2,3-d]pyrimidin-2-yl)amino)-3-methoxyphenyl)-4-oxido-1,4-azaphosphinan-1-yl)ethan-1-one]",< 10
